Reference: ChEMBL document CHEMBL1145878, “Synthesis and evaluation of isatins and thiosemicarbazone derivatives against cruzain, falcipain-2 and rhodesain” (Bioorg Med Chem Lett, 2003)

Legend:
Cruzipain [1] = target: T1, Cruzipain (Trypanosoma cruzi, UniProt P25779); experiment: Inhibitory activity against the Trypanosoma cruzi cysteine protease cruzain
Rhodesain = Rhodesain (Trypanosoma brucei rhodesiense, UniProt Q95PM0); experiment: Inhibitory activity against Trypanosoma brucei rhodesiense cysteine protease rhodesain
Falcipain 2 [2] = target: T2, Falcipain 2 (Plasmodium falciparum, UniProt Q9N6S8); experiment: Inhibitory activity against Falcipain-2
T2 sequence (Q9N6S8 whole entry): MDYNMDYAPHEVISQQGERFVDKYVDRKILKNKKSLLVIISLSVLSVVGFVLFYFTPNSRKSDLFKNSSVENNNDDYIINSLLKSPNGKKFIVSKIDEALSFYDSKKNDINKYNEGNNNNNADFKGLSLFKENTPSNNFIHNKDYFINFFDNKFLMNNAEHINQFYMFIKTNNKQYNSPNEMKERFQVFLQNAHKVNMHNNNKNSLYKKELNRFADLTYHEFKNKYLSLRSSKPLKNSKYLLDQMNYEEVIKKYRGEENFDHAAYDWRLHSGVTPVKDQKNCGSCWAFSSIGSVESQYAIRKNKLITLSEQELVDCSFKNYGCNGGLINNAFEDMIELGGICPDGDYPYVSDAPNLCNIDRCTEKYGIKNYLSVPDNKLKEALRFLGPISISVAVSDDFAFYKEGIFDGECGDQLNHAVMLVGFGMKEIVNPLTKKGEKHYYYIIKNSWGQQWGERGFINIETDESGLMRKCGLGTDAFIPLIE

Falcipain 2 [3] = target: T2, Falcipain 2; experiment: Inhibitory activity against Falcipain-2; no effect
Cruzipain [4] = target: T1, Cruzipain; experiment: Inhibitory activity against Cruzain;range is 20-50
Falcipain 2 [5] = target: T2, Falcipain 2; experiment: Inhibitory activity against Falcipain-2; No effect

Sequence of Rhodesain (Q95PM0 whole entry): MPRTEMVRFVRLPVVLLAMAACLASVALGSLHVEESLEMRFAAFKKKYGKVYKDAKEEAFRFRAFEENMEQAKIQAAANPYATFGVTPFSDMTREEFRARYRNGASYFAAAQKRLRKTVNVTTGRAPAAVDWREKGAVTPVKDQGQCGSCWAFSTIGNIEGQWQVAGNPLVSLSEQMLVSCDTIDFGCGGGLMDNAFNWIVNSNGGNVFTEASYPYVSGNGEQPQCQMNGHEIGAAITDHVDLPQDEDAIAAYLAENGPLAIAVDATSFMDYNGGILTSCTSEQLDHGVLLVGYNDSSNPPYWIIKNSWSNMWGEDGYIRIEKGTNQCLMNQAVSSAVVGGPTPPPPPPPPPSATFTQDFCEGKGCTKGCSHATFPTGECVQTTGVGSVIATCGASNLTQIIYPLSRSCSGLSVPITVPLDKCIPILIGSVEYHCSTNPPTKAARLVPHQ
T1 sequence (P25779 whole entry): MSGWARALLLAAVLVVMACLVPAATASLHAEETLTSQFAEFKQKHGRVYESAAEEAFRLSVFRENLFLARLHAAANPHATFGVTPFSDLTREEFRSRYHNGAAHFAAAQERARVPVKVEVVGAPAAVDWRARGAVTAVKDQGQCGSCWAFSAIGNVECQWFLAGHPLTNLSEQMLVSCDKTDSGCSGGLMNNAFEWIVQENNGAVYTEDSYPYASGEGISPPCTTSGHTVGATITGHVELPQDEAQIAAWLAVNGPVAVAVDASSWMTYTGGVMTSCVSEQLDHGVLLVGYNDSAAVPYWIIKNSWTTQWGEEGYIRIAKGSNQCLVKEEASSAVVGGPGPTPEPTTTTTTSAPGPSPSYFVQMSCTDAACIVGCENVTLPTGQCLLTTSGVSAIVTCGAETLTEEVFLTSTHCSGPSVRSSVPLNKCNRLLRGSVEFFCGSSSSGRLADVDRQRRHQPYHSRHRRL

Row | Compound | IC50 (Cruzipain [1]) [µM] | IC50 (Rhodesain) [µM] | IC50 (Falcipain 2 [2]) [µM] | IC50 (Falcipain 2 [3]) | IC50 (Cruzipain [4]) [µM] | IC50 (Falcipain 2 [5])
1 | NC(=S)/N=N/c1c(O)[nH]c2ccc(I)cc12 | 9 | 1 | 28.7 | – | – | –
2 | O=C1Nc2ccc(Cl)cc2C1=O | > 10 | – | – | Not Active | – | –
3 | Cc1cc(C)c2c(c1)C(=O)C(=O)N2 | > 10 | – | – | Not Active | – | –
4 | O=C1C(=O)N(Cc2ccccc2)c2ccc(I)cc21 | 90 | > 10 | – | – | – | –
5 | Cc1cc(Cl)cc2c(/N=N/C(=N)S)c(O)[nH]c12 | 10.5 | 3 | 9.4 | – | – | –
6 | O=C1Nc2ccc(Br)cc2C1=O | > 10 | – | – | Not Active | – | –
7 | NC(=S)/N=N/c1c(O)[nH]c2ccccc12 | 8 | 3.5 | 38.8 | – | – | –
8 | COc1cccc(CN2C(=O)C(=O)c3cc(Cl)ccc32)c1 | > 10 | > 10 | 34.6 | – | – | –
9 | O=C1C(=O)N(Cc2ccccc2)c2ccccc21 | > 10 | > 10 | – | Not Active | – | –
10 | O=C1C(=O)N(Cc2ccc(Cl)cc2)c2ccc(Cl)cc21 | 6 | > 10 | 31.2 | – | – | –
11 | Cc1ccc2[nH]c(O)c(/N=N/C(=N)S)c2c1 | – | 15 | 43.9 | – | 50 | –
12 | O=C1C(=O)N(C(=O)OCc2ccccc2)c2ccc(Cl)cc21 | 80 | > 10 | – | Not Active | – | –
13 | O=C1Nc2ccc(F)cc2C1=O [5-FLUOROISATIN] | > 10 | – | – | Not Active | – | –
14 | O=C1C(=O)N(C(=O)c2ccccc2)c2ccccc21 | – | 100 | – | Not Active | – | –
15 | O=C1C(=O)N(C(=O)OCc2ccccc2)c2ccccc21 | – | 30 | – | Not Active | – | –
16 | O=C1Nc2ccc(OC(F)(F)F)cc2C1=O | > 10 | > 10 | – | Not Active | – | –
17 | NC(=S)/N=N/c1c(O)[nH]c2ccc(Cl)cc12 | 21 | 6 | 32.8 | – | – | –

Row | Compound | IC50 (Cruzipain [1]) [µM] | IC50 (Rhodesain) [µM] | IC50 (Falcipain 2 [2]) [µM] | IC50 (Falcipain 2 [3]) | IC50 (Cruzipain [4]) [µM] | IC50 (Falcipain 2 [5])
18 | O=C1Nc2ccccc2C1=O [ISATIN] | > 10 | > 10 | – | – | – | Not Active
19 | O=C1C(=O)N(S(=O)(=O)c2ccccc2)c2ccccc21 | – | 15 | – | Not Active | – | –
20 | Cc1ccc(C)c(CN2C(=O)C(=O)c3cc(C)ccc32)c1 | 80 | > 10 | – | Not Active | – | –
21 | O=C1Nc2ccc([N+](=O)[O-])cc2C1=O [5-NITROISATIN] | > 10 | > 10 | 42.6 | – | – | –
22 | Cc1ccc2c(c1)C(=O)C(=O)N2Cc1ccccc1-c1ccccc1 | 2.8 | > 10 | 9.2 | – | – | –
23 | O=C1C(=O)N(C(=O)OCc2ccccc2)c2ccc(F)cc21 | > 10 | > 10 | – | – | – | –
24 | NC(=S)/N=N/c1c(O)[nH]c2ccc(Br)cc12 | 20 | 7 | 29.6 | – | – | –
25 | Cc1ccc2c(c1)C(=O)C(=O)N2 | > 10 | – | – | – | – | Not Active
26 | O=C1C(=O)N(c2ccccc2)c2ccccc21 [PHENYL ISATIN] | > 10 | – | – | Not Active | – | –
27 | Cc1ccc2c(c1)C(=O)C(=O)N2Cc1ccc(Cl)cc1 | > 10 | > 10 | – | Not Active | – | –
28 | CN1C(=O)C(=O)c2ccccc21 | > 10 | – | – | Not Active | – | –
29 | Cc1cc(C)c2[nH]c(O)c(/N=N/C(=N)S)c2c1 | 16 | 15 | 13.2 | – | – | –
30 | O=C1Nc2ccc(I)cc2C1=O [5-IODOISATIN] | > 10 | – | – | Not Active | – | –
31 | O=C1C(=O)N(Cc2ccccc2)c2ccc(Cl)cc21 | 90 | > 10 | 46.9 | – | – | –
32 | NC(=S)/N=N/c1c(O)[nH]c2ccc(F)cc12 | 30 | 15 | 38.6 | – | – | –
33 | NC(=S)/N=N/c1c(O)[nH]c2ccc([N+](=O)[O-])cc12 | 30 | 17 | 4.4 | – | – | –
34 | COc1cccc(CN2C(=O)C(=O)c3cc(C)ccc32)c1 | 2 | > 10 | 21.9 | – | – | –
